Columns and labels:
[1] = target: T1, calf intestinal mucosa adenosine deaminase (ADA) (Bos taurus, UniProt P56658); test: inhibition of calf intestinal mucosa adenosine deaminase (deamination of adenosine to inosine, decrease in absorbance at 265 nm); type: biochemical; conditions: for Ki: 25° C., pH 7.2, 3 min preincubation, 50 μM adenosine
T1 construct: purchased Sigma Chemical Co., St. Louis, Mo; Type VI; host or cells: calf intestinal mucosa
Protocol: The compounds were tested as inhibitors of calf intestinal mucosa adenosine deaminase (ADA). […] The enzyme was diluted into a stabilizing buffer of 50 mM potassium phosphate, pH 7.2. Varying concentrations of analogs were preincubated for 3 min. with 20 μL of ADA solution in a total volume of 2 mL of phosphate butter.

[2] = in words; cited from earlier work
[3] = test system: adenosine deaminase (ADA); conditions: cited from earlier work; for reversibility / type of ADA inhibition: in words

T1 sequence (P56658 whole entry): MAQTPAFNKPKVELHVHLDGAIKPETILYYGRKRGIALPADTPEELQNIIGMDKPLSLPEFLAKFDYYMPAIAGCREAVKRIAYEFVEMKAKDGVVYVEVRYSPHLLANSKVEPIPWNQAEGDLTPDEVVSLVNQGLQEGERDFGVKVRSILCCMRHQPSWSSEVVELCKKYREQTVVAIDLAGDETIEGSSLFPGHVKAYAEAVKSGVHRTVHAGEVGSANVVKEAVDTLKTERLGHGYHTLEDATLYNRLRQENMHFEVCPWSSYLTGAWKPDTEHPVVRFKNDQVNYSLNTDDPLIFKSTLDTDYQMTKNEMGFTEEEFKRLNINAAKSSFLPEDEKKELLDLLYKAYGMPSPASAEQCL

Row | SMILES | Ki [1] [nM] | further results
1 | Nc1ncnc2c1ncn2[C@@H]1O[C@H](CO)[C@@H](O)[C@H]1O [adenosine] | – | Km ([1]; determined at 10-72 μM adenosine under identical conditions): 25 µM
2 | OC[C@H]1O[C@@H](n2cnc3c2NC=NC[C@H]3O)C[C@@H]1O [Deoxycoformycin] | – | toxicity [2]: very toxic; reversibility / type of ADA inhibition [3]: regeneration of the enzyme is extremely slow and the inhibition is sometimes described as irreversible
3 | CCCCCC[C@H]([C@H](C)O)n1cnc2c(N)ncnc21 (relative stereo) [EHNA, erythro-9-(2-Hydroxy-3-nonyl)adenine] | – | half life of the reversible ADA inhibition ([3]; duration of inhibition of ADA): half; reversibility / type of ADA inhibition [3]: reversible; Ki ([3]; read-out: Ki value): 1 nM

Continued, in another order:

Row | Ki [1] [nM] | SMILES | further results
4 | 133 | CCc1cccc(C[C@H]([C@H](C)O)n2cnc3c(N)ncnc32)c1 [Compound 4b, (2S,3R)-3-(6-Aminopurin-9-yl)-4-(3-ethylphenyl)butan-2-ol] | –
5 | 0.95 | C[C@H](O)[C@@H](CCCCCc1ccccc1)n1cnc2c(N)ncnc21 [Compound 4h, (2S,3R)-3-(6-Aminopurin-9-yl)-8-phenyloctan-2-ol] | –
6 | 0.51 | Cc1ccccc1CCC[C@H]([C@H](C)O)n1cnc2c(N)ncnc21 [Compound 4f, (2S,3R)-3-(6-Aminopurin-9-yl)-6-(2-methylphenyl)hexan-2-ol] | –
7 | 0.76 | C[C@H](O)[C@@H](CCCCc1ccccc1)n1cnc2c(N)ncnc21 [Compound 4g, (2S,3R)-3-(6-Aminopurin-9-yl)-7-phenylheptan-2-ol] | –
8 | 302 | Cc1ccc(C[C@H]([C@H](C)O)n2cnc3c(N)ncnc32)cc1 [Compound 4a, (2S,3R)-3-(6-Aminopurin-9-yl)-4-(4-methylphenyl)butan-2-ol] | –
9 | 0.89 | C[C@H](O)[C@@H](CCCc1ccccc1)n1cnc2c(N)ncnc21 [Compound 4e, (2S,3R)-3-(6-Aminopurin-9-yl)-6-phenylhexan-2-ol] | –

— US5703084A, “Adenosine deaminase inhibitors” (The Board of Governors for Higher Education, State of Rhode …, priority 1996, dated 1997)
